Data: patent US20160228434A1, “TREATMENT OF DISEASES CAUSED BY ABNORMAL LYMPHOCYTE FUNCTION WITH AN HDAC6 INHIBITOR” (priority 2013, published 2016)
“Also recorded” adds a separate entry of the source.

Assays:
Type in all cases: in vivo
[1] = system: bone marrow pro-B cell (B220+CD43+) and pre-B cell (B220+CD43-) populations; assay: Bone marrow pro- and pre-B cell differentiation by flow cytometry in treated NZB/W mice
Excerpt: Bone marrow cells were flushed in PBS with 1% BSA from the femurs of NZB/W mice following euthanization. Red blood cells (RBCs) were lysed using ammonium chloride potassium (ACK) lysing solution. Single-cell suspensions were then washed and stained with Allo-Phycocyanin (APC)-conjugated […] and Flourescein Isothiocyanate (FITC)-conjugated CD43 anti-mouse mAbs to identify pro-B cell (B220^+ CD43^+) and pre-B cell (B220^+ CD43^−) populations. Pro-B cell populations were further stained with Phycoerythirn (PE)-conjugated BP1 and PECy5 or Peridinin-chlorophyll proteins (PerCP)-conjugated CD24 anti-mouse mAbs to identify fractions A (B220^+ CD43^+ CD24^− BP1^−), B (B220^+ CD43^+ CD24^+ BP1^−), C (B220^+ CD43^+ CD24^lo BP1), and C′ (B220^+ CD43^+ CD24^hi BP1^+). Pre-B cells fractions were further stained with PE-conjugated IgD, and PECy5-conjugated IgM anti-mouse mAbs to identify fractions D (B220^+ CD43^− IgM^− IgD^−), E (B220^+ CD43^− IgM^+ IgD^−) and F (B220^+ CD43^− IgM^+ IgD^+). Fractions were measured by flow cytometric analysis. All antibodies were purchased from eBioscience (San Diego, Calif., USA). Flow cytometry was performed at that College of Veterinary Medicine Flow Cytometry Core Facility using a FACScan flow cytometer (Becton Dickinson, Franklin Lakes, N.J., USA). Flow cytometry data was analyzed using FlowJo Software (Tree Star, Ashland, Oreg., USA).
(§1) NZB/W mice were injected intraperitoneally 5 days/week with the vehicle control (DMSO), ACY-738 treatment at 5 mg/kg (low-dose), or ACY-738 treatment at 20 mg/kg (high-dose) beginning at 22-weeks-of-age until euthanization at 38 weeks-of-age. ACY-738 was received from Acetylon Pharmaceuticals for use in all studies. Proteinuria and weight were measured every 2 weeks and blood was collected every four weeks for sera analysis. Proteinuria was measured by a standard semi-quantitative test using Siemens Uristix dipsticks (Siemens Healthcare, Deerfield, Ill., USA). Results were quantified according to the manufacturer's instructions and scored as follows: dipstick reading of 0 mg/dL=0, trace=1, 30-100 mg/dL=2, 100-300 mg/dL=3, 300-2000 mg/dL=4, and 2000+ mg/dL=5.
Following treatment with ACY-738, harvested bone marrow cells were stained with B220 and CD43 and the percentage of pro- and pre-B cells was determined using flow cytometric analysis. FIG. 2A depicts a representative flow cytometry image of pro-B cell (B220^+ CD43^+) and pre-B cell (B220^+ CD43^−) populations.

NZB/W mice [2] = assay: Survival rate and disease progression (body weight, proteinuria, spleen weight) in NZB/W mice; settings: for proteinuria: every 2 weeks
Method: as §1
However, half of the NZB/W mice receiving the vehicle control alone died before termination of the study at 38 weeks-of-age (FIG. 6 A). Body weight increased as NZB/W mice aged following treatment with ACY-738. Vehicle control-treated NZB/W mice experienced weight loss concomitantly with increased proteinuria (FIG. 6 B).
Throughout the treatment period, NZB/W mice were monitored for changes in proteinuria and body weight.
Because SLE is characterized by enlargement of the spleen, splenomegaly was assessed in mice following euthanization by determining the total spleen weight along with the spleen: body weight ratio. Both spleen weight and spleen: body weight ratio were decreased following HDAC6 inhibition in a concentration dependent manner (FIG. 6 D-E).

[3] = system: glomerular IL-6, IL-10 and TGF-β mRNA; assay: Glomerular IL-6, IL-10 and TGF-β mRNA by real-time RT-PCR in treated NZB/W mice; settings: 38-week-old NZB/W mice
Method: as §1
RNA was isolated using the mirVana miRNA isolation kit according to the manufacturer's protocol (Applied Biosystems, Carlsbad, Calif., USA). The eluates were quantified on a spectrophotometer (Nanodrop, Thermo Scientific, Waltham, Mass., USA). An aliquot was taken and diluted to 1 ng/μL for real-time RT-PCR. The eluted RNA was stored at −80° C.
IL-6, IL-10 and TGF-β mRNA expression were measured using TaqMan Gene Expression assays (Applied Biosystems, Carlsbad, Calif., USA). The […] using the endogenous control GAPDH, and then the ΔCT was determined by calculating the fold change in expression between the NZB/W mice treated with ACY-738 and the DMSO-treated controls. All samples were run in triplicate.
The cortical tissue was isolated from one kidney of each mouse and pooled by treatment group. Briefly, cortical tissue was pressed through grading sieves and resuspended in 750 U/mL Worthington type I collagenase at 37° C. for 20 min. Glomerular cells were pelleted, resuspended in RNAlater (QIAGEN, Valencia, Calif., USA), and stored at −20° C. until RNA isolation.
Following euthanization, glomeruli were isolated from the kidneys and RNA was extracted. Relative glomerular mRNA expression of IL-10, TGF-β, and IL-6 were determined using real-time RT-PCR.

NZB/W mice [4] = assay: SLE-associated renal pathology (PAS-stained kidney sections, glomerular score) in treated NZB/W mice
Method: as §1
At the time of euthanization, the kidneys were removed and cut in half. One half of the kidney from each mouse was fixed in formalin, embedded in paraffin, sectioned, and stained with Periodic acid-Schiff (PAS). Kidney sections were scored (0-4) for glomerular proliferation, inflammation, crescent formation, necrosis, and by a pathologist, Dr. David Caudell, in a blinded manner.
In order to assess renal disease, kidney sections were embedded in paraffin and stained by PAS. […] NZB/W mice treated with DMSO alone had thickened, irregular glomerular basement membranes, increased cellularity, fibrosis and crescent formation (see FIG. 11 A). […] Sections were assessed for glomerular proliferation, inflammation, number of nuclei per glomerulus, crescent formation, and fibrosis by a blinded pathologist, and a glomerular score (0-4) was assigned. NZB/W mice that were treated with the vehicle control alone received an average score of 4 compared to an average score of 2 from mice that received the high-dose of ACY-738 (FIG. 11 C).

[5] = both high (20 mg/kg) and low (5 mg/kg) dose
[6] = i.p. 5 days/week, 22 to 38 weeks-of-age, 5 or 20 mg/kg
[7] = NZB/W mice after euthanization at 38 weeks, 5 and 20 mg/kg, concentration dependent
[8] = 5 mg/kg, vs DMSO-treated controls

O=C(NO)c1cnc(NC2(c3ccccc3)CC2)nc1 [ACY-738]
percentage of pre-B cells in fraction D [1, 5]: significant increase
percentage of pre-B cells in fraction E [1, 5]: significant increase
pre-B cells in fraction F [1, 5]: decrease
pre-B cell population (B220+CD43-) in bone marrow ([1]; i.p. 5 days/week, 22 to 38 weeks-of-age, 5 and 20 mg/kg): significantly decreased in a dose-dependent manner
percentage of pro-B cells in fraction A [1, 6]: significantly increased
percentage of pro-B cells in fraction C [1, 6]: significantly increased
percentage of pro-B cells (B220+CD43+) in bone marrow ([1]; i.p. 5 days/week, 22 to 38 weeks-of-age, 5 or 20 mg/kg, vs vehicle): not significantly altered
spleen weight (NZB/W mice [2]; [7]): decreased
spleen: body weight ratio (NZB/W mice [2]; [7]): decreased
body weight (NZB/W mice [2]; NZB/W mice, 22-38 weeks-of-age, vehicle mice lost weight): increased
survival (NZB/W mice [2]; NZB/W mice, high (20 mg/kg) or low (5 mg/kg) dose, to 38 weeks-of-age, half of vehicle mice died): survived to the completion of the study
proteinuria (NZB/W mice [2]; NZB/W mice, high dose 20 mg/kg, 22-38 weeks-of-age, 20 mg/kg): prevented proteinuria from increasing; also recorded: significantly attenuated
proteinuria (NZB/W mice [2]; NZB/W mice, low dose 5 mg/kg, 22-38 weeks-of-age): gradually increased
reduction of glomerular IL-6 mRNA level [3, 8]: more than 50%
reduction of glomerular IL-10 mRNA level [3, 8]: more than 50%
glomerular IL-6 mRNA level ([3]; 20 mg/kg): non-detectable levels
glomerular IL-10 mRNA level ([3]; 20 mg/kg): non-detectable levels
glomerular TGF-β mRNA ([3]; 5 and 20 mg/kg, dose-dependent): decreased
kidney pathology (NZB/W mice [4]; 5 mg/kg, PAS-stained sections): did not significantly alter
SLE renal pathology (NZB/W mice [4]; 20 mg/kg, PAS-stained sections, lack of fibrosis and crescent bodies): significantly reduced
average glomerular score (0-4) (NZB/W mice [4]; high dose (20 mg/kg), vehicle control average score 4): 2
